Data on nine compounds can be found in PubChem BioAssay (NCI).

Holding throughout (assay): NCI tumour cell line growth inhibition, 48 h
The test system of assay [1] is NCI-H522 lung.
For assay [2], the system named is CCRF-CEM leukemia.
The subject of assay [3] is OVCAR-4 ovarian.
Assay [4] relates to PC-3 prostate.
For assay [5], the system named is HCC-2998 colon.
The subject of assay [6] is ACHN renal.
Assay [7] concerns SK-MEL-2 melanoma.
In assay [8] the test system is MDA-MB-231 breast.
Assay [9] deals with SR leukemia.
Assay [10] concerns NCI-H23 lung.
The test system of assay [11] is TK-10 renal.
For assay [12], the system named is T-47D breast.
The test system of assay [13] is MDA-MB-435.
Assay [14] has as its system MDA-N.
Assay [15] has as its system LOX IMVI melanoma.
In assay [16] the test system is DU-145 prostate.
In assay [17] the test system is SF-539 CNS.
In assay [18] the test system is MCF7 breast.
In assay [19] the test system is M14 melanoma.

Molecules are shown by their SMILES.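 Where inhibition never reached the appropriate level, the endpoint shown equals the highest concentration tested. Otherwise, values were interpolated linearly from a five-concentration, 48-hour dose response in 96-well plates. TGI is the concentration that stops growth completely.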 A value given as a limit tells only on which side of the number the result lay.

`Cn1ccc(C(=O)N2CCSC2=S)c(OCc2ccccc2)c1=O`: the TGI in [1], in assay [2], in [3], in assay [4], in [5] and in assay [6] was > 100 µM in each case. Besides, the TGI in assay [7] is > 100 µM; in assay [8], > 100 µM; in [9], 93.6 µM; in assay [10], > 100 µM; in [11], > 100 µM; in assay [12] it was > 100 µM. Also, the TGI in [13], in assay [14], in [15] and in [16] was > 100 µM throughout.
With `O=C(Nc1nc(C23CC4CC(CC(C4)C2)C3)cs1)c1c(O)c2ccccc2[nH]c1=O`, the TGI in [1], in assay [2], in assay [17], in assay [3], in assay [4] and in assay [5] was > 100 µM in each case. The TGI in assay [6], in [8], in assay [9], in assay [10], in assay [11] and in assay [18] was > 100 µM each time. Also, the TGI in assay [13], in assay [14], in assay [15] and in assay [16] was > 100 µM in each case.
As for `O=[N+]([O-])c1ccc(-c2nc3ccc([N+](=O)[O-])cc3[nH]2)cc1`, the TGI in assay [1] was 88.4 µM; in [17], > 100 µM; in [3] it was > 100 µM; in [4], 70.7 µM; in assay [5], > 100 µM; in assay [6], > 100 µM. The TGI in assay [7] is 59.6 µM; in assay [9], > 100 µM; in assay [10], 65.3 µM; in assay [11], > 100 µM; in assay [19], > 100 µM; in [18], > 100 µM. Besides, the TGI is 61.7 µM in assay [12]; 89.5 µM in assay [13]; > 100 µM in [14]; 67.8 µM in assay [15]; > 100 µM in [16].
As to `Cc1ccc(O)c(C(c2ccc([N+](=O)[O-])cc2)c2cc(C)ccc2O)c1`, the TGI is 28.6 µM in [1]; 56.9 µM in assay [2]; 32.1 µM in assay [17]; 23.8 µM in assay [3]; 14.3 µM in assay [4]; 9.66 µM in assay [5]. Moreover, the TGI in assay [6] was determined as 19.2 µM; in assay [7], 23.9 µM; in assay [8] it was 26.2 µM; in [9], 22.8 µM; in assay [10] it was 21.5 µM; in assay [11], 30.4 µM. The TGI amounted to 26.7 µM in [19]; 20.3 µM in assay [18]; 34.7 µM in assay [12]; 28.5 µM in assay [13]; 55.6 µM in assay [15]; 27.4 µM in assay [16].
With `Cn1c2c(c3ccccc31)CCN(CCN1CCN(c3ccccc3)CC1)C2=O`, the TGI was 92.9 µM in assay [1]; > 100 µM in [2]; > 100 µM in assay [17]; > 100 µM in [6]; > 100 µM in [10]; > 100 µM in assay [11]. In addition, the TGI in assay [19] and in [15] was > 100 µM throughout.
`CC1=NNC(=O)C1C1CC(c2c[nH]c3ccccc23)=NNC1=S` (stereo not drawn): the TGI in assay [1], in assay [2], in assay [17], in assay [4], in [6] and in [7] was > 100 µM each time. Besides, the TGI in assay [8], in assay [10], in [11], in assay [19], in [12] and in assay [13] was > 100 µM in each case. Further, the TGI in assay [14] and in assay [16] was > 100 µM throughout.
As for `O=S(=O)(N/N=C1\CC2CCC1C2)c1ccccc1` (stereo not drawn), the TGI in assay [1], in assay [2], in assay [3], in [4], in assay [6] and in assay [7] was > 100 µM each time. Also, the TGI in assay [9], in assay [10], in [11], in assay [19], in [18] and in assay [13] was > 100 µM throughout. The TGI in assay [14], in assay [15] and in assay [16] was > 100 µM in each case.
Take `COC(=O)[C@@H]1C=C[C@H](OC2OC(COC(C)=O)C(OC(C)=O)C(OC(C)=O)C2OC(C)=O)n2c(=O)c3ccccc3c(=O)n21` (stereo partly drawn): the TGI in assay [1] stood at 3.28 µM; in [2], 24.9 µM; in [17], 33.7 µM; in assay [3], 34.6 µM; in assay [4], 25.3 µM; in assay [5] it was 29.6 µM. In addition, the TGI is 24.1 µM in assay [6]; 24.5 µM in [7]; > 100 µM in assay [9]; 39.9 µM in assay [10]; 18.3 µM in assay [11]; 36.9 µM in assay [19]. In addition, the TGI in assay [18] worked out at 29.3 µM; in [12], 20.9 µM; in [13], 23 µM; in assay [15], 29.5 µM; in [16] it was 38.3 µM.
With `COc1ccc(/C=C/c2sc3ccccc3[n+]2CCCCI)cc1OC`, the TGI in assay [1], in assay [2], in [17], in assay [3], in assay [4] and in [5] was > 10 µM in each case. The TGI in assay [6] is > 10 µM; in assay [7] it was 9.47 µM; in assay [8] it was > 10 µM; in assay [10] it was > 10 µM; in assay [11] it was > 10 µM; in [19], > 10 µM. Besides, the TGI in assay [18], in assay [13], in assay [14], in [15] and in [16] was > 10 µM throughout.
